# Measured values reported in the METLIN SMRT retention time set (Domingo-Almenara et al. 2019).
# Assay: gradient 5% acetonitrile 3 min, to 50% in 2 min, to 85% in 15 min, held 3 min, 100 µL/min
# Conditions: column: Zorbax Extend-C18 2.1 x 50 mm; eluents: water / acetonitrile, 0.1% formic acid
# Procedure, shortened: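 Over 3 months, pure standards in mixtures of ~100 molecules were run by HPLC coupled to a quadrupole time-of-flight mass spectrometer in positive and negative ionization mode. The column was a Zorbax Extend-C18 (2.1 × 50 mm, 1.8 μm) at 100 μL/min, eluted with water and acetonitrile each holding 0.1% formic acid, with 40 μL dead and 900 μL dwell volumes. Retention time was determined from adduct peaks chosen by software and checked manually.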
row,RP-LC retention time [s],SMILES
1,717,O=C(Nc1cccnc1Cl)C1CCCN(c2ncnc3c2nc2n3CCCCC2)C1 (centres undefined)
2,642,Cc1ccc(S(=O)(=O)NCC(c2ccccc2)N(C)C)cc1 (centres undefined)
3,642,CCCNC(=O)C1CCCN(c2ccc(SCC(=O)Nc3ccc4c(c3)OCO4)nn2)C1 (centres undefined)
4,626,O=S(=O)(c1cccc(F)c1)N1CCN(c2cnn3c(C4CC4)nnc3c2)CC1
5,599,NC(=O)C1CCN(C(=O)C2CCN(C(=O)C3CC(=O)N(c4ccc(F)cc4)C3)CC2)CC1 (centres undefined)
6,1100,Cc1nc(-c2cc(S(=O)(=O)Nc3ccc(F)c(F)c3)c(C)s2)sc1C
7,696,Cc1cc(NS(=O)(=O)c2cc3n(c2)CCCN(C)C3=O)ccc1F
8,808,NS(=O)(=O)c1ccc(NC(=O)CN2C(=O)S/C(=C\C=C\c3ccccc3)C2=O)cc1
9,846,CCN1C(=O)c2cccnc2Sc2cc(CNC(=O)COc3cccc(C)c3)ccc21
10,658,Cc1ccc(CN2C(=O)COC[C@H]2C(=O)NC2CC2)cc1
11,1150,Cc1ccc(-c2nc(-c3ccc4c(c3)nc(C)c(=O)n4C)no2)cc1F
12,661,O=C(c1ccco1)N1CCN(c2ccc3cc(S(=O)(=O)N4CCOCC4)ccc3n2)CC1
13,895,Cc1cc(C)c(NC(=O)Cn2c(=O)cc(-c3nc(C)no3)c3ccccc32)c(C)c1
14,676,COCCNC(=O)c1ccccc1-c1ocnc1C(=O)OC(C)C
15,896,CCOc1ccccc1N1CCN(S(=O)(=O)c2nn(CC)cc2C(=O)NCC(=O)OC)CC1
16,648,CCOCC(=O)N(C)CCc1noc(-c2ccc(C(=O)N3CCCC3)cc2)n1
17,882,O=C(NC1CCCCCC1)C1CCN(Cc2cc3ccccc3n2Cc2cccc(Cl)c2)CC1
18,695,O=C(Cc1csc(NC(=O)NC2CCCCC2)n1)NCc1ccco1
19,930,O=C(C1CCN(c2ncnc3c2oc2ccccc23)CC1)N1CCN(c2cccc(Cl)c2)CC1
20,781,O=C(CSc1nnc(NC(=O)c2ccccc2C(F)(F)F)s1)NC1CCCCC1
21,742,O=C(Nc1ccc2c(c1)CCC2)c1ccnc(N2CCNC(c3ccccc3)C2)c1 (centres undefined)
22,1010,CNC(=O)c1c(NC(=O)c2ccccc2Cl)sc2c1CCC2

row,RP-LC retention time [s],SMILES
1,1130,Cc1nc(-c2cn(C)c3ncccc23)sc1C(=O)Nc1ccc(F)cc1
2,651,Cc1ccc(S(=O)(=O)[C@H]2CS(=O)(=O)C[C@@H]2N2CCN(Cc3ccccc3)CC2)cc1
3,685,CCc1ccccc1NC(=O)Cc1nnc(-c2cnccn2)o1
4,583,COCc1cc(=O)n(CC(=O)NCc2ccc(F)cc2)c(N)n1
5,699,Cc1cc(=O)n(CC(=O)Nc2cc(F)ccc2C)c(N2CCCCC2)n1
6,1160,Cc1ccc(NC(=O)N2CCc3nc(-c4ccc(Cl)cc4)ncc3C2)cc1C
7,919,COC(=O)COC(=O)c1cn(-c2ccc(F)cc2)c(=O)c2ccccc12
8,703,O=C(c1ccc(F)c(F)c1)N1CCCN(c2cc(-c3ccc4c(c3)OCO4)[nH]n2)CC1
9,586,Cn1cnc(S(=O)(=O)N2CCCC(c3[nH]ccc3C(N)=O)C2)c1 (centres undefined)
10,890,COc1cccc(CCC(=O)Nc2cnn(-c3ncc(N4CCCCC4)cn3)c2)c1
11,700,Cc1cc2c(cc1S(=O)(=O)N1CCCC1C(=O)Nc1ccc3c(c1)OCCO3)OCC(=O)N2 (centres undefined)
12,872,CCOC(=O)c1c(S(=O)(=O)N2CCC(C(=O)N3CCc4ccccc4C3)CC2)c(C)n(C)c1C
13,596,Cc1noc(C)c1CC(=O)N1CCCC(c2nnc3n2CCN(C(=O)C2CC2)C3)C1 (centres undefined)
14,684,CC(=O)N1CCCc2cc(S(=O)(=O)N3CCC(C(=O)Nc4cccc(C)n4)CC3)ccc21
15,645,CCSc1nc2c(s1)c(=O)n(-c1ccccc1)c(=O)n2CC(=O)NC1CCCCC1
16,974,CCC(C)C(=O)N1CCCN(C2=NS(=O)(=O)C(c3ccc(C(C)C)cc3)=C2C)CC1 (centres undefined)
17,585,CCOC(=O)N1CCN(C(=O)CSc2ccc3nnc(-c4cccnc4)n3n2)CC1
18,879,CC1=C(c2ccc(F)cc2)S(=O)(=O)N=C1N1CCCN(C(=O)CCC(C)C)CC1
19,939,O=S(=O)(CCc1noc(-c2cc(F)cc(F)c2)n1)c1ccccc1
20,1310,COc1ccc(-c2noc(Cc3nc(-c4ccc(C)c(C)c4)cs3)n2)cc1
21,804,CC(=O)c1ccn(S(=O)(=O)c2ccc(C)cc2)c1
22,571,CCN1CCN(Cc2nc3cc(NC(=O)CC(C)C)ccc3n2C(C)C)CC1

row,RP-LC retention time [s],SMILES
1,975,COC(=O)c1ccc2c(=O)n(-c3ccc(Cl)cc3)c(N3CCOCC3)nc2c1
2,604,COc1ccc(C(=O)NCCc2ccc(S(N)(=O)=O)cc2)nn1
3,754,O=C(COc1ccc(NC(=O)C2CC2)cn1)NCc1cc(F)cc(F)c1
4,572,CCOc1ccccc1C(=O)NCC(c1ccc(N(C)C)cc1)N(C)C (centres undefined)
5,677,O=C(Nc1ccc2c(c1)OCO2)C1CCN(c2cc(N3CCCCC3)ncn2)CC1
6,713,CCCn1cc(CCNC(=O)Nc2ccc(OC)cc2)c2cccnc21
7,682,O=C(CN1C(=O)COc2ccc(C(=O)N3CCCC3)cc21)NCc1ccc2c(c1)OCO2
8,926,CCn1nccc1C(=O)Nc1nc(-c2ccc(OC)cc2OC)cs1
9,779,Cc1ccnc(N2CCCC(C(=O)NCCc3ccccc3Cl)C2)n1 (centres undefined)
10,1020,Cc1ccc(CN(C(=O)C(C)Oc2ccc(Cl)c(C)c2)C2CCS(=O)(=O)C2)o1 (centres undefined)
11,636,FC1(c2nc(-c3ccccc3)no2)CCN(C2CCOCC2)CC1
12,519,COc1cccc(CN2CC[C@@](C)(O)[C@H](N3CCCC3)C2)c1
13,613,O=C(c1ccc(=O)n(CCN2CCOCC2)c1)N1CCN(c2ccccc2F)CC1
14,1090,Cn1nc(-c2nnc(-c3ccc(F)cc3)o2)c2c1CCN(S(=O)(=O)c1ccc3c(c1)CCCC3)C2
15,706,Cc1nc(-c2ccc(C(=O)NC3CC3)cc2)cs1
16,1070,CCc1nc2cc(-c3noc(COc4ccc(OC)cc4)n3)ccc2o1
17,936,CCCn1cc(S(=O)(=O)Nc2ccc(C)cc2F)c2cccnc21
18,856,CCCn1ccc2sc(C)c(C(=O)NCc3cccc(OC)c3)c2c1=O
19,887,CCOc1ccccc1C1C(C(=O)OC)=C(C)NC2=C1C(=O)c1ccccc12 (centres undefined)
20,701,CC(=O)Nc1nc(-c2ccc3c(c2)NC(=O)C(C)O3)c(C)s1 (centres undefined)
21,1060,COCCN1CC2(CCCC2)N(Cc2cc(C(F)(F)F)ccc2Cl)CC1=O
22,854,CCc1noc(NC(C)=O)c1-c1ccc(OC)c(S(=O)(=O)Nc2cc(C)ccc2OC)c1

row,RP-LC retention time [s],SMILES
1,1090,COc1ccc(-c2nnc(-c3ccccc3)o2)cc1S(=O)(=O)N1CCC(C)CC1
2,826,Cc1ccc(-c2cn3c(CC(=O)NCc4ccccc4)csc3n2)cc1C
3,661,O=C(C1CCN(c2cnn(Cc3ccccc3)c(=O)c2)CC1)N1CCOCC1
4,1210,Cc1nc2cc(-c3noc(-c4ccc(C)c(F)c4)n3)ccc2o1
5,570,Nc1nnc(C2CC(=O)N(c3ccccc3)C2)o1 (centres undefined)
6,754,CCNc1nc(C)cc(N2CCN(S(=O)(=O)c3cccc(C(F)(F)F)c3)CC2)n1
7,567,O=C(NC1CC1)c1ccc(N2CCC(NCc3ccc(F)c(F)c3)C2)nc1 (centres undefined)
8,872,CCOC(=O)c1ccc(NC(=O)Cn2c(=O)nc(N3CCCC(C)C3)c3ccccc32)cc1 (centres undefined)
9,916,Cn1c(C(=O)NCCc2c[nH]c3ccccc23)cc2sccc21
10,1070,Cc1cccc(S(=O)(=O)N2CCc3nc(-c4ccccc4)ncc3C2)c1
11,1020,CC(C)CN1CCn2cc(S(=O)(=O)Nc3ccc(F)cc3)cc2C1=O
12,761,CC(=O)N1CCC(C2CCN(S(=O)(=O)c3ccc(Cl)s3)C2)CC1 (centres undefined)
13,882,O=C(COc1ccc(F)cc1)Nc1cc(F)c2nc(N3CCOCC3)ccc2c1
14,777,CCN(CC)S(=O)(=O)c1ccc2c(c1)N(CC(=O)N1CCOCC1)C(=O)C1CCCCN21 (centres undefined)
15,670,COC(=O)c1ccc(NC(=O)c2[nH]c3cc(C)sc3c2CN(C)C)cc1
16,769,Cc1cccc(Cn2c(=O)n(CCNC(=O)C(C)C)c3ncccc32)c1
17,571,CC(=O)N1CC(c2nnc(C(C)C)o2)C2(CCOCC2)C1 (centres undefined)
18,565,CCCNC(=O)C1CCN(c2cnc(N3CCN(CC)CC3)nc2)CC1
19,632,Cc1nnc(NC(=O)CSCc2ccco2)s1
20,807,COc1ccc(C)cc1NC(=O)NCCn1c(C(F)(F)F)nc2cccnc21
21,1000,COc1cccc(-c2noc(Cc3nnc(-c4cccc(Cl)c4)o3)n2)c1OC

row,SMILES,RP-LC retention time [s]
1,Cc1c(CCN)ccc2c1[nH]c1ccccc12,697
2,O=C(Cc1ccc(F)cc1)N1CCN(CC(O)c2cccs2)CC1 (centres undefined),569
